How the values were obtained:
Experiment in all cases: relative viability (nuclei count vs DMSO), 5 days (fraction); higher = more cells survive
[1] = test system: BEN
Outline: (§1)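 Lung cancer cell lines in 1536-well plates got either a single drug or a fixed anchor-drug dose together with five library-drug doses (not always all listed) in √10 steps, by pin tool, on the day after seeding. Nuclei were counted after 5 days, and relative viability is the treated-to-vehicle ratio of nuclei counts. Values are medians of duplicate plates.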

[2] = test system: CAL-12T
Outline: as §1

[3] = test system: EKVX
Outline: as §1

[4] = test system: HCC-366
Outline: as §1

[5] = test system: HCC-44
Outline: as §1

[6] = test system: LOU-NH91
Outline: as §1

[7] = test system: LU99A
Outline: as §1

[8] = test system: NCI-H1355
Outline: as §1

[9] = test system: NCI-H1395
Outline: as §1

[10] = test system: NCI-H1437
Outline: as §1

[11] = test system: NCI-H1563
Outline: as §1

[12] = test system: NCI-H1650
Outline: as §1

[13] = test system: NCI-H1651
Outline: as §1

[14] = test system: NCI-H1734
Outline: as §1

[15] = test system: NCI-H1755
Outline: as §1

[16] = test system: NCI-H1975
Outline: as §1

[17] = test system: NCI-H2023
Outline: as §1

[18] = test system: NCI-H2085
Outline: as §1

[19] = test system: NCI-H358
Outline: as §1

[20] = test system: NCI-H441
Outline: as §1

[21] = test system: NCI-H460
Outline: as §1

[22] = test system: NCI-H838
Outline: as §1

NC(=O)Nc1cc(-c2cccc(F)c2)sc1C(=O)N[C@H]1CCCNC1 [AZD7762] + CS(=O)(=O)N1CCN(Cc2cc3nc(-c4cccc5[nH]ncc45)nc(N4CCOCC4)c3s2)CC1 [Pictilisib] (partner 1 µM)
relative viability ([1]; first compound 0.01 µM): 0.713
relative viability ([1]; first compound 0.03162 µM): 0.689
relative viability ([1]; first compound 0.1 µM): 0.537
relative viability ([1]; first compound 0.3162 µM): 0.539
relative viability ([1]; first compound 1 µM): 0.41
relative viability ([2]; first compound 0.01 µM): 0.413
relative viability ([2]; first compound 0.03162 µM): 0.521
relative viability ([2]; first compound 0.1 µM): 0.385
relative viability ([2]; first compound 0.3162 µM): 0.405
relative viability ([2]; first compound 1 µM): 0.238
relative viability ([3]; first compound 0.01 µM): 0.459
relative viability ([3]; first compound 0.03162 µM): 0.451
relative viability ([3]; first compound 0.1 µM): 0.462
relative viability ([3]; first compound 0.3162 µM): 0.327
relative viability ([3]; first compound 1 µM): 0.276
relative viability ([4]; first compound 0.01 µM): 0.153
relative viability ([4]; first compound 0.03162 µM): 0.128
relative viability ([4]; first compound 0.1 µM): 0.213
relative viability ([4]; first compound 0.3162 µM): 0.137
relative viability ([4]; first compound 1 µM): 0.133
relative viability ([5]; first compound 0.01 µM): 0.642
relative viability ([5]; first compound 0.03162 µM): 0.627
relative viability ([5]; first compound 0.1 µM): 0.584
relative viability ([5]; first compound 0.3162 µM): 0.612
relative viability ([5]; first compound 1 µM): 0.556
relative viability ([6]; first compound 0.01 µM): 0.546
relative viability ([6]; first compound 0.03162 µM): 0.555
relative viability ([6]; first compound 0.1 µM): 0.473
relative viability ([6]; first compound 0.3162 µM): 0.489
relative viability ([6]; first compound 1 µM): 0.595
relative viability ([7]; first compound 0.01 µM): 0.381
relative viability ([7]; first compound 0.03162 µM): 0.331
relative viability ([7]; first compound 0.1 µM): 0.324
relative viability ([7]; first compound 0.3162 µM): 0.319
relative viability ([7]; first compound 1 µM): 0.207
relative viability ([8]; first compound 0.01 µM): 0.405
relative viability ([8]; first compound 0.03162 µM): 0.428
relative viability ([8]; first compound 0.1 µM): 0.44
relative viability ([8]; first compound 0.3162 µM): 0.445
relative viability ([8]; first compound 1 µM): 0.391
relative viability ([9]; first compound 0.01 µM): 0.663
relative viability ([9]; first compound 0.03162 µM): 0.643
relative viability ([9]; first compound 0.1 µM): 0.674
relative viability ([9]; first compound 0.3162 µM): 0.514
relative viability ([9]; first compound 1 µM): 0.403
relative viability ([10]; first compound 0.01 µM): 0.501
relative viability ([10]; first compound 0.03162 µM): 0.442
relative viability ([10]; first compound 0.1 µM): 0.483
relative viability ([10]; first compound 0.3162 µM): 0.555
relative viability ([10]; first compound 1 µM): 0.477
relative viability ([11]; first compound 0.01 µM): 0.648
relative viability ([11]; first compound 0.03162 µM): 0.629
relative viability ([11]; first compound 0.1 µM): 0.539
relative viability ([11]; first compound 0.3162 µM): 0.617
relative viability ([11]; first compound 1 µM): 0.623
relative viability ([12]; first compound 0.01 µM): 0.62
relative viability ([12]; first compound 0.03162 µM): 0.657
relative viability ([12]; first compound 0.1 µM): 0.515
relative viability ([12]; first compound 0.3162 µM): 0.391
relative viability ([12]; first compound 1 µM): 0.155
relative viability ([13]; first compound 0.01 µM): 0.755
relative viability ([13]; first compound 0.03162 µM): 0.566
relative viability ([13]; first compound 0.1 µM): 0.556
relative viability ([13]; first compound 0.3162 µM): 0.457
relative viability ([13]; first compound 1 µM): 0.226
relative viability ([14]; first compound 0.01 µM): 0.538
relative viability ([14]; first compound 0.03162 µM): 0.535
relative viability ([14]; first compound 0.1 µM): 0.524
relative viability ([14]; first compound 0.3162 µM): 0.384
relative viability ([14]; first compound 1 µM): 0.293
relative viability ([15]; first compound 0.01 µM): 0.471
relative viability ([15]; first compound 0.03162 µM): 0.469
relative viability ([15]; first compound 0.1 µM): 0.406
relative viability ([15]; first compound 0.3162 µM): 0.397
relative viability ([15]; first compound 1 µM): 0.241
relative viability ([16]; first compound 0.01 µM): 0.334
relative viability ([16]; first compound 0.03162 µM): 0.304
relative viability ([16]; first compound 0.1 µM): 0.288
relative viability ([16]; first compound 0.3162 µM): 0.235
relative viability ([16]; first compound 1 µM): 0.194
relative viability ([17]; first compound 0.01 µM): 0.228
relative viability ([17]; first compound 0.03162 µM): 0.227
relative viability ([17]; first compound 0.1 µM): 0.176
relative viability ([17]; first compound 0.3162 µM): 0.11
relative viability ([17]; first compound 1 µM): 0.091
relative viability ([18]; first compound 0.01 µM): 0.407
relative viability ([18]; first compound 0.03162 µM): 0.507
relative viability ([18]; first compound 0.1 µM): 0.486
relative viability ([18]; first compound 0.3162 µM): 0.516
relative viability ([18]; first compound 1 µM): 0.361
relative viability ([19]; first compound 0.01 µM): 0.363
relative viability ([19]; first compound 0.03162 µM): 0.358
relative viability ([19]; first compound 0.1 µM): 0.35
relative viability ([19]; first compound 0.3162 µM): 0.325
relative viability ([19]; first compound 1 µM): 0.267
relative viability ([20]; first compound 0.01 µM): 0.494
relative viability ([20]; first compound 0.03162 µM): 0.594
relative viability ([20]; first compound 0.1 µM): 0.7
relative viability ([20]; first compound 0.3162 µM): 0.556
relative viability ([20]; first compound 1 µM): 0.555
relative viability ([21]; first compound 0.01 µM): 0.356
relative viability ([21]; first compound 0.03162 µM): 0.382
relative viability ([21]; first compound 0.1 µM): 0.417
relative viability ([21]; first compound 0.3162 µM): 0.342
relative viability ([21]; first compound 1 µM): 0.175
relative viability ([22]; first compound 0.01 µM): 0.544
relative viability ([22]; first compound 0.03162 µM): 0.45
relative viability ([22]; first compound 0.1 µM): 0.471
relative viability ([22]; first compound 0.3162 µM): 0.53
relative viability ([22]; first compound 1 µM): 0.25
